Data reported in patent US5998397A, “Gallium complexes of 3-Hydroxy-4-pyrones to treat or prevent bone disease” (priority 1998, dated 1999).

Key:
[1] = Oral bioavailability study in rabbits (serum gallium by graphite furnace atomic absorption); type: in vivo, New Zealand white rabbits; conditions: oral gavage; for Mean gallium content of rabbit serum: 4 ml per kg, 10 mg elemental gallium per 4 ml, fasted 18 hours, 3 animals
Experimental: A test of the oral bioavailability of the 3:1 ethyl maltol:gallium complex in rabbits was conducted. In this test, the complex was given to rabbits and compared to a solution of gallium nitrate. Six female New Zealand white rabbits weighing between 2.68 and 2.91 kg were used, and were not fed for 18 hours before starting the experiment. A suspension of the 3:1 gallium ethyl maltol complex in double distilled water was prepared with a concentration of 10 mg elemental gallium per 4 ml of suspension. […] A small amount of solid sodium carbonate was added to the latter solution to bring the pH up to about 6. Each of the two solutions was given to three rabbits by oral gavage (through a tube inserted through the mouth to the stomach) in the amount of 4 ml per kg of body weight. The stomach tubes were flushed by three ml of water following administration of the solutions.
Six ml of blood was taken from each, rabbit at 1 hour, 2 hours, 4 hours, 8 hours, and 24 hours following administration of the solutions, and the serum separated and frozen. Control samples of blood were taken 24 hours earlier. The frozen serum samples were then sent to an independent testing laboratory for determination of the gallium contents by graphite furnace atomic absorption analysis. The testing laboratory received numbered serum samples, and never had any knowledge of the experimental conditions used to produce the samples. Due to uncertainties in the analytical procedures for gallium in serum, the relative proportions of gallium in the serum samples are considered more significant than the actual reported concentrations.

[2] = Solubility in distilled deionized water
Text: Under some conditions, water may also be incorporated into the structure.

rabbits = conditions: rabbit, in vivo; cited from earlier work
[3] = type: physicochemical
Experimental: The complex was studied at two concentrations in double distilled deionized water: […]. The pH was adjusted by adding either 1N HCl or 1N Na2 CO3. The stability of the complex was determined using ultraviolet spectroscopy over the region 200-450 nm at 25° C. […] An isobesic point occurs over much of the pH range at about 290 nm. In the very dilute solutions (2.5×10^-6 M), the neutral 3:1 complex appears to be stable from about pH 4.5 to 9.5. For the less dilute solutions (1.0×10^-2 M), the determination was more difficult due to the very high absorbance.

| Structure (SMILES) | Mean gallium content of rabbit serum ([1]; 1 hour) [ng/mL] | Mean gallium content of rabbit serum ([1]; 2 hours) [ng/mL] | Mean gallium content of rabbit serum ([1]; 4 hours) [ng/mL] | Mean gallium content of rabbit serum ([1]; 8 hours) [ng/mL] | Mean gallium content of rabbit serum ([1]; 24 hours) [ng/mL] | Oral absorption compared with gallium nitrate ([1]; rabbits, equal volume and gallium concentration, stomach acid not counteracted) | Solubility ([2]; distilled deionized water, 23° C.) | Neurotoxicity (rabbits) | Solubility ([2]; water) | pH stability region of the neutral 3:1 complex (in words) [3] |
| --- | --- | --- | --- | --- | --- | --- | --- | --- | --- | --- |
| CCc1occc(=O)c1[O][Ga]([O]c1c(CC)occc1=O)[O]c1c(CC)occc1=O [Gallium Ethyl Maltol, 3:1 complex of ethyl maltol and gallium] | 90 | 274 | 260 | 212 | 84 | absorbed in significantly higher amounts than the gallium nitrate suspension | about 5 millimolar |  |  |  |
| Cc1occc(=O)c1[O][Al]([O]c1c(C)occc1=O)[O]c1c(C)occc1=O [aluminum maltol complex] |  |  |  |  |  |  |  | highly neurotoxic |  |  |
| O=[N+]([O-])[O-].O=[N+]([O-])[O-].O=[N+]([O-])[O-].[Ga+3] [gallium nitrate, reference compound] | 51 | 99 | 118 | 103 | 64 |  |  |  |  |  |
| Cc1occc(=O)c1[O-].Cc1occc(=O)c1[O-].Cc1occc(=O)c1[O-].[Ga+3] [Gallium Maltol] |  |  |  |  |  |  |  |  | about 24 millimolar | very similar to that of the highly dilute solution, possibly slightly wider |
